From ChEMBL document CHEMBL1201862, “PubChem BioAssay data set” (2004)
Active and inactive are the calls of the source.

Key:
[1] = cells; assay type: functional, cell-based; conditions: HEK-CNG
[2] = target: Galanin receptor type 3 (Homo sapiens, UniProt O60755); assay: Fluorescence-based cell-based primary high throughput dose response assay to identify antagonists of the Galanin Receptor 3 (GalR3).; assay type: functional
[3] = target: Beta-lactamase (Salmonella choleraesuis (strain SC-B67), UniProt Q5J463); assay: Epi-absorbance-based counterscreen for selective VIM-2 inhibitors: dose response biochemical high throughput screening assay to identify inhibitors of TEM-1 serine-beta-lactamase.
[4] = target: T1, Beta-lactamase (Pseudomonas aeruginosa, UniProt Q79MP6); assay: inhibition of IMP-1 beta-lactamase activity – biochemical, epi-absorbance, selectivity assay for VIM-2 inhibitor project, dose response (AID 1920)
[5] = target: T1, Beta-lactamase; assay: […] counterscreen for selective VIM-2 inhibitors: dose response biochemical high throughput screening assay to identify inhibitors of IMP-1 metallo-beta-lactamase.
[6] = target: Beta-galactosidase (Escherichia coli, UniProt Q8VNN2); assay: Dose response counterscreen for EBI2 assay utilizing the enzyme, b-galactosidase.; assay type: functional
[7] = mouse fibroblast viability loss – cell-based, cherry-pick samples, set 2, cytotoxicity control for T. cruzi growth inhibitor project, dose response (AID 651817); assay type: functional; conditions: NIH3T3
[8] = T. cruzi growth inhibition in host cells, dose response, cell-based, plate reader, dry powder, set 2 (AID 652275); assay type: functional
[9] = target: T2, Oxysterols receptor LXR-beta (Homo sapiens, UniProt P55055); assay type: functional, cell-based;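 further: agonist activity at LXR measured by a cell-based luminescence readout across a dose range, run as a counterscreen for daf-12 agonists; HEK293 cells with Gal4-LXR fusion and GAL4-driven luciferase reporter; potency for activation of Gal4-LXR reporter so compounds are agonists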
T2 sequence (P55055 whole entry): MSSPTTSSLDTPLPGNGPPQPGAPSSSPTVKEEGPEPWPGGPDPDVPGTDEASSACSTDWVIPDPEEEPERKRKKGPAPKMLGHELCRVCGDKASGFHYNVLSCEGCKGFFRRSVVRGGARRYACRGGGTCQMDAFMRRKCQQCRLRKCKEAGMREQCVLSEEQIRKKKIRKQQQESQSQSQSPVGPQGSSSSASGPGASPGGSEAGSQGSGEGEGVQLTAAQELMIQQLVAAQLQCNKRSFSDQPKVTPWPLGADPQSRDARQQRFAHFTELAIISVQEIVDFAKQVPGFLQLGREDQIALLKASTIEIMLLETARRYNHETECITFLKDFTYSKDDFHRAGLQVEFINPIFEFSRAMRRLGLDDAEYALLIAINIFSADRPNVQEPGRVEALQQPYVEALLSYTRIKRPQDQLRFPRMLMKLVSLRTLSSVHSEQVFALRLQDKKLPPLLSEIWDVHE

[10] = general mammalian cell viability loss – activator set, cherry-pick, cytotoxicity control for miR-122 modulator project, dose response (AID 720690); assay type: functional, cell-based;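 further: HEK293T human cells scored for general mammalian cytotoxicity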

T1 sequence (Q79MP6 whole entry): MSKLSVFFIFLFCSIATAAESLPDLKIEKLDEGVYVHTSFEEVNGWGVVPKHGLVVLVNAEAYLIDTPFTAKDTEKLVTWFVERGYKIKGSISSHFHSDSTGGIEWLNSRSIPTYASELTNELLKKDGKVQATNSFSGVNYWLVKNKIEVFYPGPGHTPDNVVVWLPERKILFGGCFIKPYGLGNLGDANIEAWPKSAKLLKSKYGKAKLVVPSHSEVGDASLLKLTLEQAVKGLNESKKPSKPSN
Sequence of Beta-galactosidase (Q8VNN2 whole entry): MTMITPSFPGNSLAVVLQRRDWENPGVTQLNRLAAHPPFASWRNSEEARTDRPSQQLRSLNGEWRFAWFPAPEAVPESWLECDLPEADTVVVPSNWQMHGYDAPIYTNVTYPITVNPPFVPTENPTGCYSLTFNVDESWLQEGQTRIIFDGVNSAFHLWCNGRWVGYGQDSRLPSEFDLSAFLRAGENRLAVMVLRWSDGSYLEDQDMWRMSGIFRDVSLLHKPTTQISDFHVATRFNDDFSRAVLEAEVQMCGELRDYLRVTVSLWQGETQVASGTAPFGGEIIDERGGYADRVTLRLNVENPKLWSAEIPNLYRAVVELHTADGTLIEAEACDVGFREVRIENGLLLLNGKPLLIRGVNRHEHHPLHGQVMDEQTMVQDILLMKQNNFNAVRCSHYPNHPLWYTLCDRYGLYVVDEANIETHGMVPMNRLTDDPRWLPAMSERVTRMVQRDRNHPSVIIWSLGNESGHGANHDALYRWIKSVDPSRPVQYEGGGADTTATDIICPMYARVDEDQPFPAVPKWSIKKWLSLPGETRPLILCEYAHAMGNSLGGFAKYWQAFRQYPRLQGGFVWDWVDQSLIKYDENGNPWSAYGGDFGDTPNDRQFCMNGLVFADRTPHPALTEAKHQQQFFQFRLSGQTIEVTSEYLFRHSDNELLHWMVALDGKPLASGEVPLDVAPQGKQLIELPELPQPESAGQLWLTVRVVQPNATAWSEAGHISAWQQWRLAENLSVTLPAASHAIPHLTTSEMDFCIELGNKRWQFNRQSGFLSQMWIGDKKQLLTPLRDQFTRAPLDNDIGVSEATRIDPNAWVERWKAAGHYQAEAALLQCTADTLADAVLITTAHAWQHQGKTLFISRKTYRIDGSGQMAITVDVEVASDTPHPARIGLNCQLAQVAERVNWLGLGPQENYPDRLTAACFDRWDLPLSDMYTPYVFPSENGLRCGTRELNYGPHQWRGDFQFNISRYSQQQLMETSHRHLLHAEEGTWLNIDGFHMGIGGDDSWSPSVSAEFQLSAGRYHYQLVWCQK
Sequence of Beta-lactamase (Salmonella choleraesuis (strain SC-B67), UniProt Q5J463) (Q5J463 whole entry): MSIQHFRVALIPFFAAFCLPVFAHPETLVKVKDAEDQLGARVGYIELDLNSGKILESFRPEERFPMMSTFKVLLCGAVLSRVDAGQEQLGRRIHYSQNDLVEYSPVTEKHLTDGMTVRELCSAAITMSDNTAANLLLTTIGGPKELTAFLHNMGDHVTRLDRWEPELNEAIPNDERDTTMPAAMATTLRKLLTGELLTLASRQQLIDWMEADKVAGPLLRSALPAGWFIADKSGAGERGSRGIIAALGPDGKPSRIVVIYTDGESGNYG
Sequence of Galanin receptor type 3 (O60755 whole entry): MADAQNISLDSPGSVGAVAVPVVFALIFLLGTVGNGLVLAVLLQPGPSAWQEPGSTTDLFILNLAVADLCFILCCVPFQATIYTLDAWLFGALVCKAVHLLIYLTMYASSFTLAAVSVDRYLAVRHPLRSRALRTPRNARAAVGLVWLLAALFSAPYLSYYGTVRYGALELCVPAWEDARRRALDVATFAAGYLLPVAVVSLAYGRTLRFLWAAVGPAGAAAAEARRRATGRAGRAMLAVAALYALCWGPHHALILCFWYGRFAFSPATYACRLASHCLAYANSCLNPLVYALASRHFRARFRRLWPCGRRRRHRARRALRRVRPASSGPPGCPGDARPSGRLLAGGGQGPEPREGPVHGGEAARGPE

For `COc1ccc(CN2CCC(C(=O)Nc3ccc(Oc4ccccc4)nc3)CC2)cc1F`, the EC50 [1] was > 29.9 µM (inactive) and the IC50 [2] was 3.56 µM (active).
With `Cc1cc(C(=O)OCC(=O)NC(=O)c2cccn2C)c2ccccc2n1` the IC50 [3] was > 59.6 µM (inactive), the IC50 [4] was > 59.6 µM (inactive) and the IC50 [5] was > 59.6 µM (inactive).
With `CO/N=C/c1ccc(Oc2ccc(C)cc2)nc1` the IC50 [6] was > 80 µM (inactive).
In the case of `C[C@H]1CN([C@@H](C)CO)C(=O)c2cccc(NC(=O)c3nc4ccccc4s3)c2O[C@@H]1CN(C)Cc1ccc2c(c1)OCO2`, the AC50 [7] is reported as 9.31 µM (active).
In the case of `C[C@@H]1CN([C@@H](C)CO)C(=O)c2cccc(NC(=O)c3ccncc3)c2O[C@@H]1CN(C)Cc1ccccc1`, the AC50 [7] is reported as 39 µM (inactive).
For `CC(C)N1C[C@@H](CN(C)Cc2ccc(Cl)cc2)Oc2c(NC(=O)c3ccncc3)cccc2C1=O`, the AC50 [8] was 0.0045 µM (active).
In the case of `c1ccc(N=Nc2ccc(C3=NCCO3)cc2)cc1`, the EC50 [9] is reported as > 67.6 µM (inactive).
For `CCCNC(=O)C[C@@H]1CC[C@H]2[C@H](COc3ccc(NC(=O)c4ccc(C(F)(F)F)cc4)cc3C(=O)N2C)O1`, the AC50 [10] was 31.5 µM (active).
